# Assay results reported in US9555032B2, “Methods for treatment and prevention of tauopathies and amyloid beta amyloidosis by modulating CRF receptor signaling” (Research Development Foundation, priority 2007, dated 2017).
# “Also recorded” adds a separate entry of the source.
# Columns and labels:
# [1] = Gerhlert et al., 2007; cited from earlier work
# [2] = Gerhlert et al., 2007; cited from earlier work; remark: listed apart in the source
# [3] = test system: tau phosphorylation (tau-P) at the AT8 and PHF-1 sites; assay: Acute restraint stress-induced tau phosphorylation, Western blot of hippocampal extracts, CRF-R1 antagonist pretreatment; assay type: in vivo, mouse
# Description: Acute restraint stress involved placing mice in ventilated 50 ml conical tubes for 30 min; repeated stress involved 14 consecutive daily exposures. Animals were killed at various intervals ranging from 20 min to 24 hr after stress. Control mice were handled comparably, but were not otherwise manipulated.
# The small molecule, CRF-R1-selective antagonist, antalarmin (Webster et al., 1996), was administered at 20 mg/kg by intraperitoneal (ip) injection 20 min before stress exposure. All animals were handled twice daily for 28 d prior to experimentation, and received daily mock ip injections to minimize stress of injection at testing. […]
# After sedation, the animals were decapitated and the hippocampus was rapidly dissected and frozen on dry ice. […] Protein concentrations were determined using a BCA Protein Assay Kit (Pierce Biotechnology, Rockford, Ill.). […] Primary antibodies were detected with either anti-mouse or rabbit horseradish peroxidase-linked secondary antibodies (1:1000 Calbiochem, San Diego, Calif.) and developed with an enhanced chemiluminescence Western blot detection kit (Supersignal West Pico, Pierce Biotechnology). Background subtraction was performed and quantitative band intensity readings were obtained using NIH Image software. […]
# [4] = test system: PS/APP mouse AD model (amyloid plaques); assay: Amyloid plaque density in PS/APP transgenic mouse AD model with or without chronic variable stress; assay type: in vivo; settings: antalarmin 40 mg/kg/d ip; for density of plaques in cortex and hippocampus: sacrificed end of fifth month
# Excerpt: The PS/APP mouse line was originally purchased from another research laboratory. These mice express the Swedish familial AD mutation of human amyloid precursor protein (APP) (APPK670N,M671L; line Tg2576) and the familial AD mutation of presenilin-1 (PSEN1-dE9) (Jankowsky et al., 2001). Hemizygous double mutant PS/APP offspring and non-transgenic mice were used in experimentation, as it has been reported that homozygote lines of Tg2576 cannot be generated (McGowan et al., 1999). Genotypes were determined by PCR analysis of ear or tail DNA.
# For acute stress experiments, CRFR1-selective small molecule antagonist, antalarmin (Webster et al., 1996), was administered at 20 mg/kg by intraperitoneal (ip) injection 20 min before stress exposure. All animals were handled twice daily for at least 14d prior to experimentation, and receive daily mock ip injections to minimize stress of injection at testing. Antalarmin was solubilized in equal volumes of absolute ethanol and Cremaphor EL (Sigma-Aldrich, St. Louis, Mo.), as described (Webster et al., 1996; Pernar et al., 2004). This stock solution was diluted in prewarmed (50° C.) distilled water and adjusted to a final concentration of 4 mg/ml immediately prior to injection. For chronic administration, antalarmin was administered twice daily via ip injection (Wong et al., 1999).
# CVS involved daily exposure to either two brief or one sustained stressor over 15d. Brief stressors included elevated plus maze exposure (30 min), shaker stress (30 min on an orbital shaker at 100 rpm), ip hypertonic saline injection (0.4 ml of 1.5M saline), restraint (30 min), tail suspension (10 min) and forced swimming (10 min in RT water). […]
# There was no evidence of tau pathology (tangle formation), nor was it expected to develop in animals at this early stage of disease progression. […] While it remains to be determined whether this effect will maintain in older animals, and whether drug and/or stress exposure will affect tau pathology, the results provide an additional endorsement for considering CRFR1 as a therapeutic target in AD.
# [5] = test system: hippocampal tau-P (PHF-1 immunoreactivity); assay: Intracerebroventricular CRF injection, PHF-1 immunohistochemistry of hippocampus; assay type: in vivo, mouse; settings: 0.5 μg CRF icv, 40 min after administration
# Excerpt: CRF-R1−/− (U.S. Pat. No. 6,147,275) and CRF-R2−/− (U.S. Pat. No. 6,353,152) mice, along with age-matched wt controls (n=3/group), were anesthetized with isoflurane, and implanted stereotaxically with 26-ga guide cannulae (Plastics One, Wallingford, Conn.) aimed to terminate above the lateral ventricle. Cannulae were affixed to the skull with dental acrylic adhering to jeweler's screws partially driven into the skull, and sealed externally with stylets. After 7 d recovery, stylets were replaced with 33-ga injection cannulae, and 2 hr later the animals were remotely injected with 0.5 μg synthetic mouse/human CRF in […] saline, or vehicle alone, over ˜1 min. To approximate the time frame used in acute stress experiments, animals were killed 40 min after icy injection and perfused for immunohistochemistry, as above. CRF was generously provided by Dr. J. Rivier (Salk Institute).
# Mice were perfused with 4% paraformaldehyde, as previously described (Bittencourt and Sawchenko, 2000). 30 μm-thick frozen sections were cut on a sliding microtome and stored at −20° C. in cryoprotectant solution (20% glycerol and 30% ethylene glycol in 0.1 M phosphate buffer) until use. Free-floating sections containing the hippocampus were used to detect tau-P with PHF-1 (1:500) in mouse tissues using Mouse-on-Mouse Immunodetection Kit reagents (Vector, Burlingame, Calif.) to avoid detection of endogenous mouse immunoglobulin. Endogenous peroxidase was quenched with 0.3% hydrogen peroxide, followed by 1% sodium borohydride to reduce free aldehydes. Reaction product was developed using a nickel-enhanced glucose oxidase method (Shu et al., 1988).
# To determine whether CRF is capable of independently eliciting hippocampal tau-P, wt and CRF-R-deficient mice were implanted with lateral ventricular cannulae for icy injection. Resultant PHF-1 immunoreactivity was examined 40 min after administration of CRF (0.5 μg in 5 μl) or vehicle (FIG. 4B). […] In contrast to stress effects, however, no labeling of pyramidal neurons or their processes was observed after icy CRF injections.
# [6] = test system: interstitial fluid levels of Aβ; settings: central CRF administration; APP transgenic mice; Kang et al., 2007; cited from earlier work
compound,measurement,setting,value
"CCC(CC)c1cc(C)nn2c(-c3sc(N4CCOCC4)nc3Cl)c(C)nc12 [MTIP, 3-(4-Chloro-2-Morpholin-4-yl-Thiazol-5-yl)-8-(1-Ethylpropyl)-2,6-Dimethyl-Imidazo[1,2b]Pyridazine]",solubility,[1],favorable solubility
same,ability to cross the BBB,[2],has the ability to cross the BBB
CCCCN(CC)c1nc(C)nc2c1c(C)c(C)n2-c1c(C)cc(C)cc1C [antalarmin],stress-induced increments in tau phosphorylation at the AT8 and PHF-1 sites,"[3]; antalarmin 20 mg/kg ip 20 min before 30 min acute restraint, hippocampal extracts 20 min post-stress",prevented stress-induced increments in phosphorylation at both sites; also recorded: blocked the stress-induced increment
same,basal levels of tau-P at the AT8 or PHF-1 sites,"[3]; antalarmin 20 mg/kg ip, unstressed mice, hippocampal extracts, relative to untreated controls",Neither antalarmin nor the vehicle used for its administration significantly altered basal levels of tau-P; also recorded: did not affect basal levels of phosphorylation
same,density of plaques (change by antagonist treatment),"[4]; both stressed and unstressed PS/APP mice, cerebral cortex",significantly reduced
same,density of plaques in cortex and hippocampus,[4]; stressed (CVS) PS/APP mice,2.49 /mm^2
same,density of plaques in cortex and hippocampus,[4]; unstressed PS/APP mice,1.15 /mm^2
"CRF: synthetic mouse/human corticotropin-releasing factor peptide, injected icv (SEEPPISLDLTFHLLREVLEMARAEQLAQQAHSNRKLMEII)",hippocampal tau-P (PHF-1 labeling) after icv CRF,[5]; CRF-R1-/- mice,comparable to the low level seen in saline-injected controls
same,hippocampal tau-P (PHF-1 immunoreactivity) after icv CRF,[5]; CRF-R2-/- mice,robust increases in hippocampal tau-P
same,hippocampal tau-P (PHF-1 immunoreactivity) after icv CRF,[5]; wt mice,robust increases in hippocampal tau-P
same,interstitial fluid levels of Aβ,[6],can increase interstitial fluid levels of Aβ
